Experimental findings from publication PMC11695965 (Nature Communications, 2025) are described below.

Read-outs that look alike come from different tables or passages of the source.

In assay [1] the target is T1, CkPTA (phosphotransacetylase) (Clostridium kluyveri, UniProt A5N801).
T1 sequence (A5N801 1-333): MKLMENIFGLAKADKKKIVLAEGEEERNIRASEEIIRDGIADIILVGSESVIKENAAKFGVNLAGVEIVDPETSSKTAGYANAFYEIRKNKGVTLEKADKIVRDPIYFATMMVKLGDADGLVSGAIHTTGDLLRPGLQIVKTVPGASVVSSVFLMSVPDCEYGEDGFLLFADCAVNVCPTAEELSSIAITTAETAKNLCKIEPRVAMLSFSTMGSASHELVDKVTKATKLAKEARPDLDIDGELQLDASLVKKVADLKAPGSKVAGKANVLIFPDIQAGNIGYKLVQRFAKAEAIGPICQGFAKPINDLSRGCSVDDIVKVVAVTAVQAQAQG
The assay is described as follows: acetyl-CoA formation. It counts as biochemical.

Assay [2] concerns the target EcDERA (deoxyribose-5-phosphate aldolase); HSA = its T19S/G171A/V206I mutant (Escherichia coli, UniProt P0A6L0).

Chain of EcDERA (deoxyribose-5-phosphate aldolase); HSA = its T19S/G171A/V206I mutant (P0A6L0 whole entry T19S/G171A/V206I): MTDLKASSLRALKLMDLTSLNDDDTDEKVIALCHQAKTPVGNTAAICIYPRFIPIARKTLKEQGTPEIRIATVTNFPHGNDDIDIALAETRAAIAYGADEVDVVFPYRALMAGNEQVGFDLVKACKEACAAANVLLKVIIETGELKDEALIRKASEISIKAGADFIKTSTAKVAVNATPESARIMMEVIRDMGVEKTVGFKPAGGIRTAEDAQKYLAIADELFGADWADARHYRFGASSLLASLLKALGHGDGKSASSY

On to `CC(=O)OP(=O)(O)O` [acetyl phosphate], for which the acetyl-CoA formation entry in assay [1] is on record as “CkPTA then converted acetyl phosphate into acetyl-CoA as the output product”.

For the compound `CC(=O)SCCNC(=O)CCNC(=O)[C@H](O)C(C)(C)COP(=O)(O)OP(=O)(O)OC[C@H]1O[C@@H](n2cnc3c(N)ncnc32)[C@H](O)[C@@H]1OP(=O)(O)O` [acetyl-CoA], the acetyl-CoA formation result in assay [1] was “CkPTA then converted acetyl phosphate into acetyl-CoA as the output product”.

In the case of `O=C[C@H](O)[C@H](O)COP(=O)(O)O` [erythrose 4-phosphate], the “product formation (H6P)” value in assay [2] (with glycolaldehyde) was “enzyme for the condensation of glycolaldehyde and E4P to H6P”.

Consider `O=CCO` [glycolaldehyde], for which, in assay [2] (with erythrose 4-phosphate), the “product formation (H6P)” value is recorded as “deoxyribose-5-phosphate aldolase (EcDERA) showing the highest activity”.
